Reference: US20170044208A1, “SELECTIVE GLUCOCORTICOID RECEPTOR LIGANDS” (The University of Manchester, priority 2013, published 2017)

Legend:
[1] = tested on: endosteal bone formation; assay: Rat endosteal bone increment; assay type: in vivo; conditions: daily oral dose, FIG. 10
From the text: However, osteoblast activity is not uniform across the skeleton, which may result in either over, or under estimation of the steroid effect. In young, growing, rats long bone remodelling during bone growth offers an attractive model to study active bone formation as the endosteal surface has new bone formation as the diameter of the shaft decreases due to endosteal bone formation, and periosteal bone resorption. As shown in FIG. 11 (CT reconstruction) as long bones grow the diameter of the shaft at the growing end (20% mark) is greater than that towards the middle of the bone (30% and 40% marks) due to loss of bone at the outer surface, or periosteal surface, and deposition of bone, due to osteoblast action, on the inner surface, or endosteal surface.
In contrast, there was no effect of Dex124 seen until 100 mg/Kg, giving an estimated IC50 of approximately 90 mg/Kg.

[2] = biological target: T1, mineralocorticoid receptor (MR) (Homo sapiens, UniProt P08235); assay: Steroid receptor cross-reactivity, mineralocorticoid receptor; assay type: cell-based; conditions: FIG. 3
T1 sequence (P08235 1-984): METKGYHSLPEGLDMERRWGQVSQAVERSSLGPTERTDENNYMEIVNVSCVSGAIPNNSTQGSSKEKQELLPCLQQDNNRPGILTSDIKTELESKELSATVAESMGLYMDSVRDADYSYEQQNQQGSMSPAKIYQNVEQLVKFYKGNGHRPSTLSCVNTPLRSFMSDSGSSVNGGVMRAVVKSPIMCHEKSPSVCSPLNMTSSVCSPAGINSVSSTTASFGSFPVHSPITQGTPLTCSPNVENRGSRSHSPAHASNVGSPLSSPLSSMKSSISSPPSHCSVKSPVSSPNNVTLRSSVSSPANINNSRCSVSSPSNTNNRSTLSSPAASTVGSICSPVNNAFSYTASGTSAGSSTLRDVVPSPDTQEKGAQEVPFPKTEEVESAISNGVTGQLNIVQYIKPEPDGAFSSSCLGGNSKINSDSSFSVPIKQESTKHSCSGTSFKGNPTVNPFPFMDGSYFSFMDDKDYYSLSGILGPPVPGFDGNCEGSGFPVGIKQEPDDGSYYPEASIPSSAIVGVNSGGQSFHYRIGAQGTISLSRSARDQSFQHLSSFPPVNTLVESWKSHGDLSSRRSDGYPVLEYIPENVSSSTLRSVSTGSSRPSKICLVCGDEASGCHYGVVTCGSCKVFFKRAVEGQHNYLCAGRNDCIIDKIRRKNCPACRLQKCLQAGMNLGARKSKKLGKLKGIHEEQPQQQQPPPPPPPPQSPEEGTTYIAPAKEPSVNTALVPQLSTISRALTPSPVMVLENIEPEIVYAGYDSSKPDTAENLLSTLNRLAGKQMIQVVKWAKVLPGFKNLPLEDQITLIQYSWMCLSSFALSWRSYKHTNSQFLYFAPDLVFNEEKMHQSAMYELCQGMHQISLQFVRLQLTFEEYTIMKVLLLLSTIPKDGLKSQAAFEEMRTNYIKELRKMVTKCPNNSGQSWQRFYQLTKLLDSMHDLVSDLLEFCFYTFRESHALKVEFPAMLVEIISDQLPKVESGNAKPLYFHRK
From the text: There is a high degree of structural similarity between the various human steroid receptors. Ligands may therefore cross-react with other members of the steroid receptor family. In particular progesterone receptor and mineralocorticoid receptor show the highest structural similarity.

[3] = tested on: osteoblast activity; assay: Rat bone formation assay, serum osteocalcin; assay type: in vivo; conditions: daily oral, terminal (35 day) plasma, FIG. 9
From the text: For the analysis of bone metabolism, and its regulation by orally administered GC, a rat bone formation assay was used.
Terminal (35 day) plasma was harvested, and osteocalcin measured, as an integrated measure of osteoblast activity across the skeleton.

[4] = biological target: T2, Glucocorticoid Receptor (GR) (Homo sapiens, UniProt P04150); assay: Transactivation assay (MMTV-Luc reporter in HeLa cells); assay type: cell-based; conditions: comparison table; against maximal activation seen with dexamethasone
T2 construct: Cells were transfected the next day with MMTV-Luc (5 μg) and pGL4-hRLuc (0.1 μg); endogenous in cells; host or cells: HeLa
T2 sequence (P04150 1-777): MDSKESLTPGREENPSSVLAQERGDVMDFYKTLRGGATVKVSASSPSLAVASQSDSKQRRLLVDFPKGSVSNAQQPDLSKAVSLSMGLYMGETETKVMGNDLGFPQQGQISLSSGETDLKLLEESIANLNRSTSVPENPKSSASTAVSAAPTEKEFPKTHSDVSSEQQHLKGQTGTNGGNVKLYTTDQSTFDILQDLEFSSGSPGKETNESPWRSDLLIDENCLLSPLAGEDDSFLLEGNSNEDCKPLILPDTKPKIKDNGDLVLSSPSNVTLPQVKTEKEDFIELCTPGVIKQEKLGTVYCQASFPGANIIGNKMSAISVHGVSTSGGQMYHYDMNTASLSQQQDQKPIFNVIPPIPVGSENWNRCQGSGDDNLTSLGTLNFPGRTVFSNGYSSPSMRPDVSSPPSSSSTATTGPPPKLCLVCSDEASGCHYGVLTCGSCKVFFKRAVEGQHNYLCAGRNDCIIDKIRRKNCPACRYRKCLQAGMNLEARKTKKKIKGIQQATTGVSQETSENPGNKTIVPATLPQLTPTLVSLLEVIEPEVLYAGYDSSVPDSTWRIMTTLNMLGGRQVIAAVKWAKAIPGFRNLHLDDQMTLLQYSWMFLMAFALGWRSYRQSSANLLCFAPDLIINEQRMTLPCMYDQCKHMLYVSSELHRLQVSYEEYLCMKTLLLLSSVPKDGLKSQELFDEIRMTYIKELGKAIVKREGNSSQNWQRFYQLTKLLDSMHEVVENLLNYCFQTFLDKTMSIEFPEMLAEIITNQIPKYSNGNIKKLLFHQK
Protocol: (§1) HeLa cells were seeded at 80×10^4 cells/dish in 100 mm dishes. Cells were transfected the next day with MMTV-Luc (5 μg) and pGL4-hRLuc (0.1 μg), in 250 μL of Opti-MEM I using FuGENE HD (15 μL). After 24 hours, cells were trypsinized and seeded into 96-well plates at a density of 8-10×10^4 cells/mL.
Following overnight incubation to allow attachment, cells were treated with the required concentration of compounds, then further incubated for 16 hours. Media was aspirated and cells lysed in 40 μL of 1×PLB.
(§2) Firefly and Renilla luciferase activity was measured using the Dual Luciferase Reporter system following the manufacturer's protocol.
(§3) IC50 and EC50 values were calculated by using GraphPad Prism 5.0. Briefly, luminescence values for luciferase were normalised using the Renilla luminescence values. The normalised values were input into GraphPad Prism 5.0. Non-linear regression analysis was carried out using the “log(concentration) vs. response” equation of the software, with a Hill slope coefficient fixed at 1.
(§4) IC50 and EC50 values are mean values in nM of all IC50/EC50 values for the compound. Max % values are mean values of the Max% activity.

[5] = tested on: NFkB; assay: Transrepression assay (NFκB-LUC reporter in HeLa cells, TNF stimulated); assay type: cell-based; conditions: comparison table
Protocol: as §1, with “NFκB-LUC reporter” for “MMTV-Luc”, “0.25 mL” for “250 μL”, “in to 24-well” for “into 96-well”, “cells/mL. Following overnight incubation, cells were starved for a further 24 hours in DMEM.” for “cells/mL.”
On the day of the experiment, compounds were added to cells one hour prior to the addition of […] (0.5 ng/mL). After a further 16 hours, cells were washed twice with ice-cold PBS, then lysed with 100 μL of 1×PLB.
as §2, §3, §4

[6] = tested on: rat adjuvant arthritis; assay: Established rat adjuvant arthritis; assay type: in vivo; conditions: increasing doses, FIG. 7
From the text: Established rat arthritis was chosen as the most relevant predictive model for chronic inflammatory arthritis in man. The disease is initiated with a caudal injection of complete Freund's adjuvant and the disease is established after 14 days. Anti-inflammatory molecules are given orally, usually once a day and after 7 days the animals are sacrificed. Paw volumes are the primary measurement and as a secondary measure inflammatory lesions are scored at a number of sites. At autopsy adrenal, spleen and thymus weights are recorded.
The arthritis score for the rats was used in these studies, as the inflammatory disease consists of both destructive inflammatory arthritis, but also systemic manifestations.
This analysis uses the area under the curve of arthritis score over the course of the experiment to yield a single, integrated measure for each experimental animal. The area under the curve of the vehicle treated animal is indicated on the graph for comparison purposes, but marked at an arbitrary log dose.

[7] = biological target: T3, progesterone receptor (Homo sapiens, UniProt P06401); conditions: cited from earlier work
T3 sequence (P06401 1-933): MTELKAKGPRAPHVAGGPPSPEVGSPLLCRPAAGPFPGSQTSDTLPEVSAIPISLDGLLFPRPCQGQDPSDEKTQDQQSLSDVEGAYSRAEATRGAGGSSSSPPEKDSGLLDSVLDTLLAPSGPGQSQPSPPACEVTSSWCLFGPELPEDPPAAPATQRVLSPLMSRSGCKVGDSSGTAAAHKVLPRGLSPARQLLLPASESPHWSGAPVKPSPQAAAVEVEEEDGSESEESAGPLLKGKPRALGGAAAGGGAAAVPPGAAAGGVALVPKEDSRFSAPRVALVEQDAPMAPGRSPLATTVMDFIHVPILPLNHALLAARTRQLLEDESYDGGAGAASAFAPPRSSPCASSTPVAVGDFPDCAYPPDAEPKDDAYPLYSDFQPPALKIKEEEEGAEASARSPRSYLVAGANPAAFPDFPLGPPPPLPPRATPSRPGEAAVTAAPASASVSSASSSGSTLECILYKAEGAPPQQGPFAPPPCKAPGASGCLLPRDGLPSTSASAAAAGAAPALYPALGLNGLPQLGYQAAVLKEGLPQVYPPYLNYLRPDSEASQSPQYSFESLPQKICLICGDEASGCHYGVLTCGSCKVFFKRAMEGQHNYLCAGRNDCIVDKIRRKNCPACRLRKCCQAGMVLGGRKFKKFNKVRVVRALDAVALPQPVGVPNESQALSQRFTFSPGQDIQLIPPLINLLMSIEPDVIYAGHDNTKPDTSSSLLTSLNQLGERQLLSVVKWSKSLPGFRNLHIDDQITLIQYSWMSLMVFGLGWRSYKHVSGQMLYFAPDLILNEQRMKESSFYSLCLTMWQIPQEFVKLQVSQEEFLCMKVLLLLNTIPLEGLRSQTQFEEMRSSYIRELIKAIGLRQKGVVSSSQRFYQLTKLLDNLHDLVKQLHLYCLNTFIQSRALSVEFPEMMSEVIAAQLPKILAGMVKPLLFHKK

[8] = tested on: apoptosis; conditions: cited from earlier work
[9] = biological target: T4, GR (Homo sapiens, UniProt P04150); conditions: further analyses, Vayssiere et al. 1997; cited from earlier work
T4 sequence (P04150 1-777): T2 sequence (P04150 1-777)

IC50 for decrease in bone increment [1] | activity on mineralocorticoid receptor [2] | TA % [4] | IC50 ([5]; Homo sapiens, HeLa, half-maximal repression of NFkB, multiple experiments, read-out: IC50) | Compound | osteocalcin concentration [3] | TR % ([5]; maximal NFkB repression compared to Dexamethasone) | arthritis clinical score (AUC) [6] | progesterone receptor activation [7] | induction of apoptosis [8] | GR agonist character [9]
7.8 mg/kg | significant activity | 68% | 12.9 nM | C[C@]12C=CC(=O)C=C1CC[C@@H]1[C@@H]2[C@@H](O)C[C@@]2(C)[C@H]1CC[C@]2(O)C(=O)CO [Pred, prednisolone] | dose-dependent inhibition of osteocalcin concentration | 99% | inhibit arthritis clinical score |  |  | 
 |  |  |  | C[C@@H]1C[C@H]2[C@@H]3CCC4=CC(=O)C=C[C@]4(C)[C@@]3(F)[C@@H](O)C[C@]2(C)[C@H]1C(=O)CC#N [RU24858] |  |  |  | activating the progesterone receptor | does not induce apoptosis | low potency, low efficacy full agonist
